Read-outs that look alike come from different tables or passages of the source. Some results are limits rather than exact numbers.

Data set [1] deals with binding of gp120 to α4β7. In words: gp120 binding to α4β7 in cell extracts (previous studies). Details: species or system human. The conditions noted are these: read-out: activity of inhibition of the binding of gp120 to α4β7. An excerpt: FIG. 37: Activity of a panel of inhibitors in blocking the binding of gp120 to a4b7. (a) The left chart depicts data collected in example 3 using ELISA assay. (b) The right chart depicts data collected by screening cell extracts. Bold letters used for a compound denote active compounds. The remaining compounds are weak or non-inhibitors All assays were repeated six times (three times for each anti-gp120 mAb used in the case of the ELISA data) and an average was presented. All values were obtained within 5% deviation.
This method was advanced into an ELISA format and applied to screen the number of compounds provided within the research period.
Outcome: Repandusinic acid A inhibited the binding of gp120 to α4β7 with an activity of 1.2±0.1 μM using the described an ELISA assay.
The five-step assay developed was applied to screen the panel of compounds provided. […] The experiments were run in triplicate using two antibodies against gp120. The data was compiled and plotted (FIG. 37a) and compared against the results with less accuracy obtained in our prior studies (FIG. 37b). Only modest changes were observed between the in vitro studies conducted herein (FIG. 37a) and those conducted on cell lysates (FIG. 37b). Results obtained are described in detail in the figure legend to FIG. 37 herein above.

The subject of data set [2] is "G-I-A" mutant (pNL-Bal, gp41 V38A). The conditions noted are these: for IC50: "G-I-A" mutant, R5; for Rf (resistance factor: IC50 on mutant virus / IC50 on reference strain): "G-I-A" vs pNL-Bal; for Resistance factor (IC50 mut/IC50 wt) IC50 fold increase: Table II, "G-I-A" vs wild-type pNL-Bal.
Data set [3] relates to pNL-Bal HIV-1 virus. The data set can be described thus: microbe, parasite or virus in culture. The conditions noted are these: Human immunodeficiency virus 1, BAL.
Experimental: (§3) Two compounds were evaluated for their activity as inhibitor of HIV replication on three different lab strains using the deCIPhR cellular format.
(§4) Compound stocks were prepared as 1.5 mM solution in 100% DMSO and vials were agitated for two hours at 50° C. Stock solutions were kept at −20° C., light protected as aliquots. Working dilutions (1/3 log) were prepared extemporaneously by serial dilutions in H2O/DMSO (95/5). Ten μL of working dilutions were then pipetted and directly tested for anti-HIV activity in the 200 μL final volume of the deCIPhR cellular assay format, yielding final concentrations of 7'500, 3'481, 1'616, 750, 348, 162, 75, 35, 16, 8 and 3 nM.
(§5) The DNA sequence coding for Vpu, Tat, Rev, Env, and Nef from the CCR5-tropic clone BAL2 (HIVBAL2A, Genbank accession number #M68894) was introduced by PCR-cloning into the reference proviral strain pNL4-3 (Genbank accession number #AF324493), where it replaced the corresponding region. Presence of insert was ascertained by restriction digest analysis and double sequencing on ABI 310 prism sequencer. After transfection, pNL-BaL produces a full-length infectious virus often used as reference for a B-Subtype, CCR5-tropic strain (Donaldson et al., 1994).
(§6) Principle of Dual-Enhancement of Cell-Infection to Phenotype Resistance (deCIPhR™): deCIPhR test is a proprietary assay system developed by InPheno AG (FIG. 7):
(§7) Fully infectious HIV-1 is produced from a proviral reference DNA reflecting a reference HIV-1 virus. Recombinants carrying an exchanged specific-sequence (e.g. mutants resistant to existing HIV-1 inhibitors or sequences issued from clinical situations) can easily be engineered by PCR-based amplification/ligation (see paragraph 3). The unique test format allows 3 to 5 rounds of viral replication and permits a dynamic parallel read-out of viral fitness and resistance to the respective drugs under investigation. Colorimetric readout (405 nm) is translated in percent viral inhibition through normalization with positive and negative control wells included in each 96 well-plate.
(§8) Each mutated proviral DNA is transfected into a human epitheloid cell line using lipofectant agent (lipofectamine 2000, Invitrogen) following the manufacturer's instructions. Cell to cell spread and replication of recombinant viruses is allowed for but also restricted to a period of four days in the absence or presence of specific drugs by co-culture with a second cell line expressing both chemokine receptors CXCR4 and CCR5. Finally, culture supernatants are transferred to a third reporter cell line also expressing both kinds of co-receptors. The infection is incubated for another 48 hours period, after which cells are fixed (formaldehyde/glutaraldehyde) prior to incubation with a chromogenic substrate for beta-galactosidase, typically ortho-nitrophenyl-galactopyranoside.
(§9) A range of twelve concentrations of each compound was tested in triplicates in the deCIPhR format on each mutated provirus.
(§10) The two compounds under investigation were tested along with reference compounds T20 and EFV on three wild-type viruses (pNL4-3, green curves; pNL-Bal, blue curves and pNL-AD87, orange curves) using the deCIPhR cellular system (see paragraph 4.1).
For data set [4], the system named is pNL4-3 HIV-1 virus. The data set can be described thus: microbe, parasite or virus in culture. The following applies: Human immunodeficiency virus 1.
Experimental: as §4
(§11) Fully infectious HIV-1 is produced from a proviral reference DNA reflecting a reference HIV-1 virus. […] The unique test format allows 3 to 5 rounds of viral replication and permits a dynamic parallel read-out of viral fitness and resistance to the respective drugs under investigation. Colorimetric readout (405 nm) is translated in percent viral inhibition through normalization with positive and negative control wells included in each 96 well-plate.
as §8, §9
The test system of data set [5] is HIV-reporter cells (HeLaCCR5). In words: cytotoxicity microscopically observed in virus-to-cell infection format. It counts as cell-based. The following applies: highest concentration. Here is the method: (§1) Format for virus to cell infection: Briefly, the assay was performed in 6 well tissue culture plates and included 50'000 HIV-producing cells (HeLa) in a final volume of 2 mL DMEM medium (Gibco, Parsley, UK). After 2 days of incubation, […] of viral supernatant was added to 5'000 pre-incubated HIV-reporter cells (HeLaCCR5) in a final volume of […] of RPMI medium (Gibco, Parsley, UK) including […] of substances to be tested.
(§2) In this experiment only pNL4-3 reference HIV strain was used.

Data set [6] deals with deCIPhR cellular system. The conditions noted are these: at tested concentrations.
Text: as §8, §10
Data set [7] concerns HIV. In words: profiling of anti-HIV activity, summary over lab strains. It is filed as cell-based, HIV-1. The following applies: summary of Example 2 results.
The test system of data set [8] is "D-I-A" mutant (pNL-Bal, gp41 G36D, V38A). The following applies: for IC50: "D-I-A" mutant, R5; for Rf (resistance factor: IC50 on mutant virus / IC50 on reference strain): "D-I-A" vs pNL-Bal; for Resistance factor (IC50 mut/IC50 wt) IC50 fold increase: Table II, "D-I-A" vs wild-type pNL-Bal.
In data set [9] the test system is pNL-Bal HIV-1 virus. The following applies: for Rf (resistance factor): pNL-Bal reference strain, ratio to itself.
Experimental: as §3, §4, §5, §6, §7, §8, §9, §10
For data set [10], the system named is pNL4-3 HIV-1 virus. In words: microbe, parasite or virus in culture. It counts as cell-based. The following applies: virus to cell infection, pNL4-3, X4 tropism. Here is the method: Fully infectious HIV-1 is produced from proviral reference DNA reflecting a reference wild-type HIV-1 virus (pNL4-3, Genbank #AF003888).
as §1, §2
Graphs in FIG. 10 show the inhibition curves as percent of virus inhibition as a function of increasing concentrations of each compound. The table in FIG. 10 reports the calculated parameters of HIV inhibition (IC50, IC90 and Hill's coefficient).

The test system of data set [11] is pNL-AD87 HIV-1 virus. In words: microbe, parasite or virus in culture. The following applies: Human immunodeficiency virus 1.
Experimental: as §3, §4
(§12) The DNA sequence coding for Vpu, Tat, Rev, Env, and Nef from the CCR5-tropic clone AD87 (HIV strain AD8, Genbank accession number #AF004394) was introduced by PCR-cloning into the reference proviral strain pNL4-3 (Genbank accession number #AF324493), where it replaced the corresponding region. Presence of insert was ascertained by restriction digest analysis and double sequencing on ABI 310 prism sequencer. After transfection, pNL-AD87 produces a full-length infectious virus often used as reference for a B-Subtype, CCR5-tropic strain (Theodore et al., 1996).
as §6
(§13) Fully infectious HIV-1 is produced from a proviral reference DNA reflecting a reference HIV-1 virus. Recombinants carrying an exchanged specific-sequence (e.g. mutants resistant to existing HIV-1 inhibitors or sequences issued from clinical situations) can easily be engineered by PCR-based amplification/ligation (see paragraph 3). The unique test format allows 3 to 5 rounds of viral replication and permits a dynamic parallel read-out of viral fitness and resistance to the respective drugs under investigation. Colorimetric readout (405 nm) is translated in percent viral inhibition through normalization with positive and negative control wells included in each 96 well-plate. […]
The subject of data set [12] is pNL4-3 HIV-1 virus. The conditions noted are these: cell to cell infection, pNL4-3, X4 tropism.
Experimental: as §4, §11, §8, §9
Data set [13] deals with pNL-AD87 HIV-1 virus. The conditions noted are these: cell to cell infection, pNL-AD87, R5 tropism.
Experimental: as §3, §4, §12, §6, §13

Take `O=C(O)C=C(C(=O)OC1C2COC(=O)c3cc(O)c(O)c(O)c3-c3c(cc(O)c(O)c3O)C(=O)OC1C(O)C(OC(=O)c1cc(O)c(O)c(O)c1)O2)C1c2c(cc(O)c(O)c2O)C(=O)OC1C(=O)O` (stereo not shown) [Repandusinic acid A]: the IC50 in data set [1] stood at 9080 nM.
As to `O=C(CNC1CCCCC1)Nc1cccc(C(=O)Nc2cccc(C(F)(F)F)c2)c1` [T0520-5895], the IC50 in data set [2] is 7600 nM; in [3] (read-out: IC50, extrapolated value), 15100 nM; in data set [4] it was over 30000 nM; in data set [8], over 30000 nM; in data set [10], “inactive”; in data set [11] it was 250 nM. Moreover, the “Rf (resistance factor: IC50 on mutant virus / IC50 on reference strain)” value in data set [2] is listed as 0.5; in data set [8] it was over 40. The “Resistance factor (IC50 mut/IC50 wt) IC50 fold increase” value in data set [2] is 0.5; in data set [8], over 40. The results for the signs of cytotoxicity result in [5] and in [6] were “signs of cytotoxicity” and “without signs of cytotoxicity”, respectively. Besides, the anti-HIV activity result in [7] is “significant anti-HIV activity”. The “Rf (resistance factor)” value in [9] is on record as 1.
As for enfuvirtide, the IC50 in data set [2] amounted to 127 nM; in [8] it was 2270 nM; in data set [12] it was 76 nM; in data set [13], 63 nM; in data set [9] (read-out: IC50 (concentration inhibiting 50% of viral replication), cell to cell infection, pNL-Bal, R5 tropism), 10 nM; in data set [10] (read-out: IC50) it was 48 nM. The “Rf (resistance factor: IC50 on mutant virus / IC50 on reference strain)” value is 12.7 in data set [2] and 227 in [8]. In addition, the entries for the “Resistance factor (IC50 mut/IC50 wt) IC50 fold increase” value in data set [2] and in data set [8] were 13 and 227, respectively. In addition, the “Rf (resistance factor)” value in data set [9] came out at 1.
As to `O=C1Nc2ccc(Cl)cc2[C@@](C#CC2CC2)(C(F)(F)F)O1` [EFV, Efavirenz], the IC50 worked out at 1.7 nM in data set [2]; 5 nM in [3] (read-out: IC50 (concentration inhibiting 50% of viral replication)); 9 nM in data set [4]; 3 nM in [8]; 2 nM in data set [10] (Human immunodeficiency virus 1, read-out: IC50); 1 nM in data set [11]. In addition, the “Rf (resistance factor: IC50 on mutant virus / IC50 on reference strain)” value is recorded as 0.3 in [2] and 0.6 in [8]. Moreover, the “Resistance factor (IC50 mut/IC50 wt) IC50 fold increase” value is recorded as 0.3 in data set [2] and 0.5 in data set [8]. In addition, the “Rf (resistance factor)” value in data set [9] turned out to be 1.

The record behind these values is patent US9422527B2, “Drug target site within gp120 of HIV” (priority 2011, dated 2016).
